Measured values as given in ChEMBL document CHEMBL1201862, “PubChem BioAssay data set” (2004).
Activity calls are given as the source filed them.

How the values were obtained:
NS3 = NS3 (Hepatitis C virus, UniProt A3EZJ3); test: PubChem AID 2173; set-up: species or system Hepacivirus hominis
[1] = biological target: Induced myeloid leukemia cell differentiation protein Mcl-1 (Homo sapiens, UniProt Q07820); format: functional
Protein Tat = biological target: T1, Protein Tat (Human immunodeficiency virus type 1 group M subtype B (isolate HXB2)(HIV-1), UniProt P04608); format: functional;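 also: tat binding to TAR RNA read out by fluorescence polarization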
T1 sequence (P04608 whole entry): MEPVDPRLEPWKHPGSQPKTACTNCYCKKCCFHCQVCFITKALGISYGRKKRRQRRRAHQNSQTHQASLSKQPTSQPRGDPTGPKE

Aspartyl aminopeptidase = biological target: T2, Aspartyl aminopeptidase (Plasmodium falciparum 3D7, UniProt Q8I2J3)
T2 sequence (Q8I2J3 whole entry): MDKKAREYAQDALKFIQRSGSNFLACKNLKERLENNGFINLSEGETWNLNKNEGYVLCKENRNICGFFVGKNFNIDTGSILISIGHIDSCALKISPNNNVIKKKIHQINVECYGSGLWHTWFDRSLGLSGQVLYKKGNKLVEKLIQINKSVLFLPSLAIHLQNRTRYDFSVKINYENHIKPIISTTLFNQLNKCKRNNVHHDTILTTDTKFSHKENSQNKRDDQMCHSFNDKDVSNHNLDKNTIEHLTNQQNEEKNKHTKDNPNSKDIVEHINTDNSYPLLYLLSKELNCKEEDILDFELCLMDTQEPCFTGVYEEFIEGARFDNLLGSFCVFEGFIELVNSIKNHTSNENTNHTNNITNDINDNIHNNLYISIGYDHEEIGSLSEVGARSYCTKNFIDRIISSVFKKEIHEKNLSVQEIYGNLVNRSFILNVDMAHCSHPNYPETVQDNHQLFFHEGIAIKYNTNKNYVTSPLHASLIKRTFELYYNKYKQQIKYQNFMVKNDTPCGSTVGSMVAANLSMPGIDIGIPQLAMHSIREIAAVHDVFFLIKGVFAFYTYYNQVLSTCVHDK

Procathepsin L = Procathepsin L (Homo sapiens, UniProt P07711)
[2] = biological target: Peroxisome proliferator-activated receptor gamma/Nuclear receptor coactivator 2 (Homo sapiens, UniProt P37231); format: functional;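 also: agonist potency for raising coactivator recruitment to the receptor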
[3] = biological target: Peroxisome proliferator-activated receptor gamma/Nuclear receptor coactivator 1 (Homo sapiens, UniProt P37231); format: functional;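 also: agonist potency as compounds enhance coactivator SRC-1 recruitment to PPARgamma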
Sequence of Peroxisome proliferator-activated receptor gamma/Nuclear receptor coactivator 1 (P37231 whole entry): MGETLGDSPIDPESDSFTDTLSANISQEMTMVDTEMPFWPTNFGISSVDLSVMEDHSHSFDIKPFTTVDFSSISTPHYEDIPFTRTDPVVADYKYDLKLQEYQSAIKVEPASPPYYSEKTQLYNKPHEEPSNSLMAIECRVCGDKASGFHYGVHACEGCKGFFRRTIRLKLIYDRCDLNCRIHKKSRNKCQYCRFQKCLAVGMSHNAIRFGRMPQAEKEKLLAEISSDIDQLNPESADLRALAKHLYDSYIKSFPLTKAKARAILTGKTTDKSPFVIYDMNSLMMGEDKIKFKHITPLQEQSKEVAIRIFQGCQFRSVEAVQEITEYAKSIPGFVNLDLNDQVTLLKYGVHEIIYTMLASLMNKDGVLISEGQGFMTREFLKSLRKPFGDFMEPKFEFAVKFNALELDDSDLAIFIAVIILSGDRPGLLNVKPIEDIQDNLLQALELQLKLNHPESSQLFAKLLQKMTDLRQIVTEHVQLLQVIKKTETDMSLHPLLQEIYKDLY
Sequence of Peroxisome proliferator-activated receptor gamma/Nuclear receptor coactivator 1 (Q15788 whole entry, further chain): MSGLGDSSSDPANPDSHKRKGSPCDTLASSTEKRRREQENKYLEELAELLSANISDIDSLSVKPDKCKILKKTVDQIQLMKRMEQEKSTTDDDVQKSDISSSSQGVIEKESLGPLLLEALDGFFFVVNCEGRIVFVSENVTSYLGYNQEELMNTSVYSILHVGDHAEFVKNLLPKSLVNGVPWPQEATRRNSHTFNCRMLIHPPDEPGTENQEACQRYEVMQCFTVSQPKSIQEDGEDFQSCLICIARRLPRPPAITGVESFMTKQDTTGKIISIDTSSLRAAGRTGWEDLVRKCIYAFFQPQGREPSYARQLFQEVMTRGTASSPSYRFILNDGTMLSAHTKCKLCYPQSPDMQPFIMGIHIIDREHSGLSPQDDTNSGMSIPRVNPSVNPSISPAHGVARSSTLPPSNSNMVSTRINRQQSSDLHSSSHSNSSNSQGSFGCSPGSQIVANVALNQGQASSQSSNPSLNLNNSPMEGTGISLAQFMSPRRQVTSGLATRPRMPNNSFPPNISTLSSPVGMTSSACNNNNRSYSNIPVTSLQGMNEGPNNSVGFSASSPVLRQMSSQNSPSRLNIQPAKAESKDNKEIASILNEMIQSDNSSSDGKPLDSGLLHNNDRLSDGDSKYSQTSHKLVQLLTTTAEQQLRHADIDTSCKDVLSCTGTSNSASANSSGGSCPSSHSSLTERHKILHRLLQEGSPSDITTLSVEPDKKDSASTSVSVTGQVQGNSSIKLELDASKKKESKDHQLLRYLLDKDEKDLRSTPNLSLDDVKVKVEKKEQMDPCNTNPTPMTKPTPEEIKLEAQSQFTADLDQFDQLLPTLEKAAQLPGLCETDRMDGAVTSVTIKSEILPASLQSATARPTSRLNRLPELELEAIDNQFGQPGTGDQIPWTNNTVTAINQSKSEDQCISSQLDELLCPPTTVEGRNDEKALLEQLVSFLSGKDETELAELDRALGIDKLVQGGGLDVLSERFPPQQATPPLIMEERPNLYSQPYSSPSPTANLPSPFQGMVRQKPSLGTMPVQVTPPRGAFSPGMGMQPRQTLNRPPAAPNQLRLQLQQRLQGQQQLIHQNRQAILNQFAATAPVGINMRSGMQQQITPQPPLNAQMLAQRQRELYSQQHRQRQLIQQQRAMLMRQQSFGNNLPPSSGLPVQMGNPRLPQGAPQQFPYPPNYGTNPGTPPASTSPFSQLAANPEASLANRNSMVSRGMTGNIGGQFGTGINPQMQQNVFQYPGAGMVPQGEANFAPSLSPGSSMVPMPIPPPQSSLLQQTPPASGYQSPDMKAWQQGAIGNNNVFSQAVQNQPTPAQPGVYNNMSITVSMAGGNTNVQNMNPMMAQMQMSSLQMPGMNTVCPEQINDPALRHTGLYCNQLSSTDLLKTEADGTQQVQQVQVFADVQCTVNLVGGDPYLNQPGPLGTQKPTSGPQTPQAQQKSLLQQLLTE

[4] = biological target: Peroxisome proliferator-activated receptor gamma/Nuclear receptor coactivator 3 (Homo sapiens, UniProt P37231); format: functional;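 also: agonist potency for raising coactivator recruitment to the receptor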
Sequence of Peroxisome proliferator-activated receptor gamma/Nuclear receptor coactivator 3 (P37231 whole entry): as the sequence (P37231 whole entry) above
Sequence of Peroxisome proliferator-activated receptor gamma/Nuclear receptor coactivator 3 (Q9Y6Q9 whole entry, further chain): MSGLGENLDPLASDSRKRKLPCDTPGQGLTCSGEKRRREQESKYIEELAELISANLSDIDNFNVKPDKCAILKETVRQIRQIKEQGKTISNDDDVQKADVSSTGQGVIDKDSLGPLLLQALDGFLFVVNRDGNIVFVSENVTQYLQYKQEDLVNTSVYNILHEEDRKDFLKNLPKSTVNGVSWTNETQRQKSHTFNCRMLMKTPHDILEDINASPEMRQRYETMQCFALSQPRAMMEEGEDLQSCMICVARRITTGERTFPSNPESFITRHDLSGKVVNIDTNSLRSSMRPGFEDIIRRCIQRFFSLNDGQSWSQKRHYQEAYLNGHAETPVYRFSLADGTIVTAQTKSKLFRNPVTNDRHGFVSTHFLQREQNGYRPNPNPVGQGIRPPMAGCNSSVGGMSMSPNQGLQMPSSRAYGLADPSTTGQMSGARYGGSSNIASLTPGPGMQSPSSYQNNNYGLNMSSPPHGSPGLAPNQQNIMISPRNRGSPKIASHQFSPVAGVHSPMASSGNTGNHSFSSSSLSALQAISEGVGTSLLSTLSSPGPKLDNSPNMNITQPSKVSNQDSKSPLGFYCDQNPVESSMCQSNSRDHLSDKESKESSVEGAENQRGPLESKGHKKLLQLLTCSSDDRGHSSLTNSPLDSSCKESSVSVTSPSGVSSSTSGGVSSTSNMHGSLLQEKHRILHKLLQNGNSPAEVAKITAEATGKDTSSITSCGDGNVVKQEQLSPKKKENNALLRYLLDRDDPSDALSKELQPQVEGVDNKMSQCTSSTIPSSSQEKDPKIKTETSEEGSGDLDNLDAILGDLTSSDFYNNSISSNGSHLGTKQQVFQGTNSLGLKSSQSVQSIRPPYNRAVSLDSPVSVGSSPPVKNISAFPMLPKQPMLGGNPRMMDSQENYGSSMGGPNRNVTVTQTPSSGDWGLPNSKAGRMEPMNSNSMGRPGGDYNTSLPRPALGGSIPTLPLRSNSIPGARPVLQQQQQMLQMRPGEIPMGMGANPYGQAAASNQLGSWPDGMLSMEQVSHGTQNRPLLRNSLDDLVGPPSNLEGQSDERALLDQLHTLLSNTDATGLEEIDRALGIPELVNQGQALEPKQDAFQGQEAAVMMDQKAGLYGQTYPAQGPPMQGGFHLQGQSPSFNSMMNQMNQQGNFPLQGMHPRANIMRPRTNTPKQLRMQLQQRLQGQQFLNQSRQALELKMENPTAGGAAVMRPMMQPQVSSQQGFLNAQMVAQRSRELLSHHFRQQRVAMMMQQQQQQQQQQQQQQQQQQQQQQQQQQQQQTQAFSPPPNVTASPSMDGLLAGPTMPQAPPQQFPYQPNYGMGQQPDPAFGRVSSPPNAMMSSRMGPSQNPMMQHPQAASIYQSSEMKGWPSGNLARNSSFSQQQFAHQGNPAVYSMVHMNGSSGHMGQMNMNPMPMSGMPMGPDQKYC

Large T antigen = Large T antigen (Simian virus 40, UniProt P03070); format: functional, Betapolyomavirus macacae;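 also: Confirmatory-stage PubChem screen for compounds that inhibit SV40 T antigen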
[5] = Luminescence Cell-Based Dose Confirmation HTS to Identify Activators of 5'UTR Stem-Loop Driven Alpha-Synuclein mRNA Translation in H4 Neuroglioblastoma Cells. [Related pubchem assays: 1829 (Project Summary), 1814 (Primary HTS)]; format: functional
[6] = Luminescence Cell-Based Dose Response HTS to Identify Activators of Luciferase Translation or Activity in H4 […] Cells. [Related pubchem assays: 1829 (Project Summary), 1814 (Primary HTS)]; format: functional
[7] = A Cell Based Secondary Assay To Explore Cytotoxicity of Compounds that Sensitize Mycobacterium Tuberculosis to Beta-Lactam Antibiotics.; format: functional
H4 = test: Luminescence Cell-Based Dose Response HTS to Identify Activators of 5'UTR Stem-Loop Driven Prion Protein mRNA Translation in H4 Neuroglioblastoma Cells. [Related pubchem assays: 1829 (Project Summary), 1814 (Primary HTS)]; format: functional; settings: Homo sapiens
[8] = inhibitors of firefly luciferase expression or activity, dose response, H4 neuroglioma cells, luminescence (AID 1990); format: functional, cell-based
[9] = luciferase reporter signal reduction – luminescence, H4-C neuroglioblastoma cells, dose response (AID 2458); format: functional, cell-based;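 also: H4 neuroglioblastoma cells stably carrying a luciferase reporter gene fusion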
BJ [10] = test: cytotoxicity toward BJ-TERT fibroblasts, dose response, cell-based, RAS-independent, luminescence (AID 1933); format: functional; settings: Homo sapiens
cells [11] = format: functional, cell-based
[12] = inhibitors of SNCA 5'UTR-driven reporter translation, confirmation, H4 neuroglioma cells, luminescence (AID 1988); format: functional, cell-based
BJ [13] = test: cells; format: functional, cell-based; settings: Homo sapiens
[14] = inhibitors of intracellular T. cruzi replication, confirmation, NIH3T3 host cells, beta-gal luminescence (AID 2044); format: functional, cell-based;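 also: intracellular parasites grown in NIH/3T3 mouse fibroblasts as host cells; luminescent beta-galactosidase reporter signal from transgenic T. cruzi replicating inside host cells; inhibitors lower the luminescence signal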
[15] = Luminescence-based dose response cell-based high throughput screening assay for cytotoxic compounds using the IEC-6 intestinal epithelial cell line. [Related pubchem assays: 1858 (Summary AID.), 1825 (Counterscreen.), 1907 (Confirmation screen.)]; format: functional
[16] = cytotoxicity toward NIH3T3 fibroblasts, dose response, counter-screen, cell-based, ATP luminescence, mouse fibroblasts (AID 2010); format: functional;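 also: cells exposed to compound for about 90 hours before reading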
[17] = cytotoxicity toward DRD oncogenic fibroblasts, dose response, cell-based, non-viral oncogenic, luminescence (AID 1934); format: functional; settings: Homo sapiens
[18] = inhibitors of SNCA 5'UTR-driven translation, confirmation, luminescence, H4 neuroglioblastoma cells, dose confirmation (AID 2454); format: functional, cell-based;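 also: H4 neuroglioblastoma cells carrying an alpha-synuclein 5'UTR luciferase reporter; potency for inhibition of the luciferase signal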
[19] = cytotoxicity in HEK-293T cells, dose response, cytotoxicity control for TCR NF-kB inhibitor project, luminescence, T-cell screen hits (AID 489026); format: functional, cell-based;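 also: cells exposed to compound about 14 hours before the viability readout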
cells [20] = test: cells

Sequence of NS3 (A3EZJ3 whole entry): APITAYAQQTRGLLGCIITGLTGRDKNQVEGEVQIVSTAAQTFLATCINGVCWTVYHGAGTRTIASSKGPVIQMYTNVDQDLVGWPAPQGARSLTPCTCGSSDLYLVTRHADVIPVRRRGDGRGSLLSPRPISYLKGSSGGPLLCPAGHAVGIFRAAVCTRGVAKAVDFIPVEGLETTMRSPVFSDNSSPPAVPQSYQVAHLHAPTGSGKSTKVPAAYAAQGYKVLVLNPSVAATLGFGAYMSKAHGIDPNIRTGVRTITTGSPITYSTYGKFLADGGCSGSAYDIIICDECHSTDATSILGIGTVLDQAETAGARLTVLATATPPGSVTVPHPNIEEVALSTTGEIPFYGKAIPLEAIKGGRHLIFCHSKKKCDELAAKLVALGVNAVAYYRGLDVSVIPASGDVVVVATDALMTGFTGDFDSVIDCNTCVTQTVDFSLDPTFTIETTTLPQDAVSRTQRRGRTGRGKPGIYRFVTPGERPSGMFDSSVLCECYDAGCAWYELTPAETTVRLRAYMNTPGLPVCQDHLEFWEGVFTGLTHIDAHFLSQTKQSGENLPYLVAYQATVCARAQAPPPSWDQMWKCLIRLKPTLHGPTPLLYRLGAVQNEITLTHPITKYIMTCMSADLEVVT
Sequence of Induced myeloid leukemia cell differentiation protein Mcl-1 (Q07820 whole entry): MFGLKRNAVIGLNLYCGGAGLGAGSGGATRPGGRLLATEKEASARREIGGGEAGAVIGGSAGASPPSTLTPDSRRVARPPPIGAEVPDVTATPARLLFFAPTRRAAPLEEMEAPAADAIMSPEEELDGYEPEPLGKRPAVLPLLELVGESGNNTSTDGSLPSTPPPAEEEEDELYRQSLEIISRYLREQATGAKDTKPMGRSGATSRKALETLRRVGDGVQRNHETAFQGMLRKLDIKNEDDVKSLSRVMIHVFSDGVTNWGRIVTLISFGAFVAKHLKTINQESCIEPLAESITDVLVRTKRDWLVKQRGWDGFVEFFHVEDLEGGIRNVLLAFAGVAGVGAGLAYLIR

## O=C(c1ccc2nc(-c3ccco3)c(-c3ccco3)nc2c1)N1CCN(c2ncccn2)CC1
NS3
  IC50: 11.5 µM (not active)
[1]
  IC50: 7.82 µM (active)
Protein Tat
  IC50: 7.28 µM (inconclusive)

## Cc1scc(C(=O)Nn2cnnc2)c1-c1ccccc1
Aspartyl aminopeptidase
  IC50: 3.13 µM (active)
Procathepsin L
  IC50: > 59.6 µM (not active)

## Nc1nc2ccc(N3CCOCC3)cc2s1
[2]
  EC50: > 79.4 µM (not active)
[3]
  EC50: > 79.4 µM (not active)
[4]
  EC50: > 79.4 µM (not active)
Large T antigen
  IC50: 7.66 µM (active)

## CCOC(=O)c1oc2ccc(S(=O)(=O)N3CCC(C)CC3)cc2c1C
[2]
  EC50: > 79.4 µM (not active)
[3]
  EC50: > 79.4 µM (not active)
[4]
  EC50: > 79.4 µM (not active)

## N#CC1=C2C=Cc3ccccc3N2CCCC1=O
[5]
  EC50: 20 µM (active)
[6]
  EC50: 26.4 µM (active)
[7]
  CC50: > 40 µM (active)
H4
  EC50: 21 µM (active)

## C/C=C(\C)C(=O)N[C@@H](c1ccccc1)[C@@H](O)C(=O)O[C@H]1C[C@@]2(O)[C@@H](OC(=O)c3ccccc3)C3[C@](C)(C(=O)[C@H](OC(C)=O)C(=C1C)C2(C)C)[C@H](O)C[C@H]1OC[C@@]31OC(C)=O (some centres undefined)
[8]
  EC50: 1.71 µM (active)
[9]
  EC50: 0.092 µM (active)
BJ [10]
  EC50: 0.189 µM (active)
Cells [11]
  EC50: 0.19 µM (active)
[12]
  EC50: < 0.1 µM (active)
BJ [13]
  EC50: > 150 µM (not active)
[14]
  EC50: < 0.1 µM (active)
[15]
  IC50: 0.101 µM (active)
[16]
  EC50: 0.171 µM (active)
[17]
  EC50: < 0.12 µM (active)
[18]
  EC50: 0.11 µM (active)
[19]
  IC50: > 80 µM (inactive)
Cells [20]
  EC50: 0.011 µM (active)
